Reference: US20220170028A1, “NOVEL INTERLEUKIN-2 VARIANTS AND BIFUNCTIONAL FUSION MOLECULES THEREOF” (Cugene Inc, priority 2019, published 2022)

What was measured:
Treg cells = experiment: Treg pharmacodynamics in mice after repeated administration Q3D (Example 11); type: in vivo, mouse; conditions: 0.3 mg/kg s.c.
Method: Female Balb/C mice (7-week old) were acclimated in house for 5-7 days before the study. Vehicle (PBS), 0.3 mg/kg of P-0511, P-0512, P-0531, or Benchmark-1 compound were subcutaneously administered to mice (n=5/group) on days 0, 3, and 6. On days 3 and 9, three days after the first injection and multiple (3) injections, respectively, peripheral blood was collected. Based on earlier in vivo experiments, Treg cell activation, proliferation, and expansion were expected to peak on day 3, and thus three days post injection was selected for data collection and analysis. Changes in blood lymphocyte activation, proliferation, and expansion were measured by flow cytometry. P-0531 is the S125I equivalent of the wild type IL-2 fusion protein. The Benchmark-1 contains V91K mutation.

[1] = test system: STAT5 phosphorylation in CD4+ Treg cells; experiment: STAT5 phosphorylation in CD4+ Treg cells, human PBMC assay by FACS; type: cell-based
Method in brief: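 Donor PBMCs were starved in serum-free buffer at 4° C for 1 h, then 2×10^5 cells were exposed to serial dilutions of IL-2 variants for 30 min at 37° C. After fixation and permeabilization they were stained for CD4, CD25, FOXP3 and pSTAT5. Read-out is percent pSTAT5+ cells among CD4+/Foxp3+/CD25^high (Treg) or CD4+/Foxp3−/CD25^low (Tconv) cells by flow cytometry.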

[2] = test system: STAT5 phosphorylation in NK cells; experiment: STAT5 phosphorylation in CD56+ NK cells, human PBMC; type: cell-based
Excerpt: The Stat5 phosphorylation activity on other responder cells than CD4+ T cell subsets, including CD8+T and NK, by P-0511 was compared to P-0531, the S125I equivalent of wild-type P-0250. […] IL-2 receptors expressed on CD4+ Tconv, CD8+T and NK cells are primarily dimeric IL-2Rs, comprising IL-2R6 and γc.

CD8+ T cells = experiment: CD8+ T cell proliferation, CFSE dilution, human PBMC; type: cell-based; conditions: 5 or 7 days incubation
Method: Further, P-0511 and P-0512 were tested for their ability to stimulate NK and CD8+ T cells proliferation in comparison with the wild type and benchmark molecules. Intracellular fluorescent label carboxyfluorescein diacetate succinimidyl ester (CFSE) method was utilized. Briefly, human PBMC (1×10^5 cells/well) were labeled with CFSE, plated onto 96-well plates, and incubated with increasing concentrations of different IL-2 compounds. Cells were then harvested after 5 or 7 days of incubation and stained with either anti-CD56-APC antibody for NK cells or anti-CD8-APC antibody for CD8+ T cells; and analyzed by flow cytometry. Data are expressed as a percent of divided cells and illustrated in FIG. 10A for CD8+ T cell proliferation and FIG. 10B for NK cell proliferation.

P-0511: IL-2 L19H/S125I/Q126E Fc fusion, SEQ ID NO: 213
% Treg over total CD4 T cells or over total lymphocytes (Treg cells; after three consecutive Q3D treatments): sustained at significantly high levels | Treg cell counts, fold changes relative to PBS and Treg/Tconv ratio (Treg cells; repeated dosing Q3D): superior capabilities to sustain Treg pool and maintain Treg selectivity | potency in ex vivo cell assay relative to P-0560 [1]: over 100 fold | STAT5 phosphorylation activity in NK cells (in words) [2]: nearly completely abolished | potency in stimulating CD8+ T cell proliferation (in words) (CD8+ T cells): on par with Benchmark-3
